Results on one molecule are retold here after patent publication US8853389B2, “Process for refining cefmetazole sodium” (Hainan Lingkang Pharmaceutical Co., Ltd., priority 2011, dated 2014).

Structures are written as SMILES.

The nature of one data set: solubility in solvents. Type of data set: physicochemical. The source says:
Since the solubility of Cefmetazole sodium is high in water but very low in ethanol and even lower in acetone, a mixture of water and ethanol or a mixture of water and acetone is chosen as the solvent to recrystallize Cefmetazole sodium.

Data set [1] in a line: appearance of aqueous solution of refined material. The conditions noted are these: solution of about 0.1 g/mL in water. Type of data set: physicochemical.
In data set [2] the test system is broad-spectrum β-lactamase generated by negative bacilli. The conditions noted are these: cited from earlier work.
The subject of a further data set is Escherichia coli. The conditions noted are these: cited from earlier work.
The test system of a further data set is Klebsiella pneumoniae. The conditions noted are these: cited from earlier work.
Another data set deals with Proteus mirabilis. The conditions noted are these: cited from earlier work.
For the next data set, the system named is Shigella. The conditions noted are these: cited from earlier work.
Another data set deals with Salmonella. The conditions noted are these: cited from earlier work.
The test system of the next data set is Staphylococcus aureus. Conditions: cited from earlier work.
For data set [3], the system named is group A hemolytic streptococcus. The conditions noted are these: cited from earlier work.
Data set [4] has as its system catarrhal Brenham bacteria. Conditions: cited from earlier work.
A further data set has as its system Bacteroides fragilis. The conditions noted are these: cited from earlier work.
Another data set relates to Enterobacter. Conditions: cited from earlier work.
For a further data set, the system named is Pseudomonas. Conditions: cited from earlier work.
Data set [5] concerns methicillin-resistant Staphylococcus aureus. The conditions noted are these: cited from earlier work.
In another data set the test system is pneumococcus. The conditions noted are these: cited from earlier work.
Another data set deals with meningococcus. Conditions: cited from earlier work.

In the case of `CO[C@]1(NC(=O)CSCC#N)C(=O)N2C(C(=O)[O-])=C(CSc3nnnn3C)CS[C@H]21.[Na+]` [Cefmetazole sodium], the figures for the solubility entry in the data set “solubility in solvents” (in ethanol) and in the data set “solubility in solvents” (in water) were “very low” and “high”, respectively. In addition, in data set [1], the appearance of solution entry was “clear and colorless”. Further, the “stability towards β-lactamase” value in [2] was “more stable”. The antibacterial activity result was “relatively good activity” with Escherichia coli; “relatively good activity” with Klebsiella pneumoniae; “relatively good activity” in the data set on Proteus mirabilis; “relatively good activity” in the data set on Shigella; “relatively good activity” with Salmonella; “good antibacterial activity” in the data set with Bacteroides fragilis. The sensitivity entry is “high sensitivity” in the data set with Staphylococcus aureus; “high sensitivity” in data set [3]; “high sensitivity” in [4]; “low sensitivity or resistance” in the data set with Enterobacter; “low sensitivity or resistance” in the data set on Pseudomonas; “low sensitivity or resistance” in data set [5]. Further, the sensitivity entry in the data set with pneumococcus and in the data set on meningococcus was “low sensitivity or resistance” each time.
